{"source": "paper PMC9500072", "about": "“Topical application of an irreversible small molecule inhibitor of lysyl oxidases ameliorates skin scarring and fibrosis” (Nature Communications, 2022)", "key": {"Nicotinic Acetylcholine": {"system": "Nicotinic Acetylcholine", "test": "Eurofins panel 258590", "format": "binding, human", "details": "10 µM"}, "[1]": {"test": "Stability in cream formulations", "format": "physicochemical"}, "Calcium Channel N-Type": {"target": "Calcium Channel N-Type (Rattus norvegicus, UniProt Q02294)", "sequence (Q02294 whole entry)": "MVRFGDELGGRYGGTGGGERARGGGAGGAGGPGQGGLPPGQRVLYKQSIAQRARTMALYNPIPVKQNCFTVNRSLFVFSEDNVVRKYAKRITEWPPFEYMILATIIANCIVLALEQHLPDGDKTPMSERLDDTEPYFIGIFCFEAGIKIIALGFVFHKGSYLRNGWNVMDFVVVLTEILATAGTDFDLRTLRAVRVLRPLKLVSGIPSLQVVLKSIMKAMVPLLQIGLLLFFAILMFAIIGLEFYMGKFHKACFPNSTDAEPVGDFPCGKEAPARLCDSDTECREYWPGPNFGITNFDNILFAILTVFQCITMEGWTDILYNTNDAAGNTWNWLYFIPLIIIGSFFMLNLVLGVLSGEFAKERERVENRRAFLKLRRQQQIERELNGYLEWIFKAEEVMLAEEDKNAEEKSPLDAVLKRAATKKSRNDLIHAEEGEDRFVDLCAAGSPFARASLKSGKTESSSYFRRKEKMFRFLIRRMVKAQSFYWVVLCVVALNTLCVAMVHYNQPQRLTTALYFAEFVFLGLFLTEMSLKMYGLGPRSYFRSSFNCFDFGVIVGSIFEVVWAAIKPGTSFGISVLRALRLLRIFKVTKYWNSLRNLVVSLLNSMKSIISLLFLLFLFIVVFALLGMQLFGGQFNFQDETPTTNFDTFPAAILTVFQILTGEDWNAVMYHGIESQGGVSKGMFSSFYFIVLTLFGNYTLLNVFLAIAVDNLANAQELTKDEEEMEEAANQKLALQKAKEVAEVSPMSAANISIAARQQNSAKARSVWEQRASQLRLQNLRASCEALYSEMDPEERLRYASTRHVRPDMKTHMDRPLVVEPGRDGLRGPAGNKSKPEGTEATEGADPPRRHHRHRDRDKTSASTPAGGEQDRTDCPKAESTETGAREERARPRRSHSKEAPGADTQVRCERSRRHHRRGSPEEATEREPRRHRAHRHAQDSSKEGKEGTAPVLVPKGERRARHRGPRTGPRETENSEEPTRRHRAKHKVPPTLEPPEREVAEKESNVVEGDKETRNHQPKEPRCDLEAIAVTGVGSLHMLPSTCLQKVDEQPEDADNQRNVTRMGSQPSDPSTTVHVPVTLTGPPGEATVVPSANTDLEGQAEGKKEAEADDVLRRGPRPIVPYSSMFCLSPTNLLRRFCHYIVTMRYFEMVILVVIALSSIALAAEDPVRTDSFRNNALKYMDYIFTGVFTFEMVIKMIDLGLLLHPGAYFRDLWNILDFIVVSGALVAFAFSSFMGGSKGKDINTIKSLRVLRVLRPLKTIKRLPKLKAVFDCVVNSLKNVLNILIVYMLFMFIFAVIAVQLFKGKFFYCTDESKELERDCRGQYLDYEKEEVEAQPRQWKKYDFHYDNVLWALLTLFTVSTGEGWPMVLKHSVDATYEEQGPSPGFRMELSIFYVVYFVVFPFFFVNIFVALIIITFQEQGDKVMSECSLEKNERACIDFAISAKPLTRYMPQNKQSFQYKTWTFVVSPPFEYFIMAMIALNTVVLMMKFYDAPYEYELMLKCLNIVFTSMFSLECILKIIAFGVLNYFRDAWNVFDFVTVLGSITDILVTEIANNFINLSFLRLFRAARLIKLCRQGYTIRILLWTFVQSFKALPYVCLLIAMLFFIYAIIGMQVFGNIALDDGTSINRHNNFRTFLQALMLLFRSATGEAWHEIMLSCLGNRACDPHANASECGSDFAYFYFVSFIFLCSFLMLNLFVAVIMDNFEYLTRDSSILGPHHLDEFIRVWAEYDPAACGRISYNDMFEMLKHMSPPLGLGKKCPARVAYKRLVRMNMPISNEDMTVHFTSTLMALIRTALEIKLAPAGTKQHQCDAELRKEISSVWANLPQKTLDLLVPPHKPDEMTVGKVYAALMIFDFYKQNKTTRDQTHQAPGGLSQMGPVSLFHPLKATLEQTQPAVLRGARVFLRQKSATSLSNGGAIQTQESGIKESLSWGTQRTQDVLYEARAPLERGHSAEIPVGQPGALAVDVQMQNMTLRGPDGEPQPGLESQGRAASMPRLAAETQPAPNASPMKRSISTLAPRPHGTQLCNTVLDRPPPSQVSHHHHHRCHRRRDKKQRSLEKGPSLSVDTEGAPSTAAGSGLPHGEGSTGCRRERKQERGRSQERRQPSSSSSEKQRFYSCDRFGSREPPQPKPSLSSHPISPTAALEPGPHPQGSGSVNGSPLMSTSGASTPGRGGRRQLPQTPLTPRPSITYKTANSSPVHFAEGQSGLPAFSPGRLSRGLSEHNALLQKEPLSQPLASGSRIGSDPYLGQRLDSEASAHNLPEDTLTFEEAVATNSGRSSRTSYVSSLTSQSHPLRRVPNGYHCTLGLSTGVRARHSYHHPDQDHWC", "test": "Eurofins panel 216000", "format": "binding"}, "GABAB1A": {"target": "GABAB1A (Homo sapiens, UniProt Q9UBS5)", "test": "Eurofins panel 228610", "format": "binding"}, "Bradykinin B1": {"target": "Bradykinin B1 (Homo sapiens, UniProt P46663)", "sequence (P46663 whole entry)": "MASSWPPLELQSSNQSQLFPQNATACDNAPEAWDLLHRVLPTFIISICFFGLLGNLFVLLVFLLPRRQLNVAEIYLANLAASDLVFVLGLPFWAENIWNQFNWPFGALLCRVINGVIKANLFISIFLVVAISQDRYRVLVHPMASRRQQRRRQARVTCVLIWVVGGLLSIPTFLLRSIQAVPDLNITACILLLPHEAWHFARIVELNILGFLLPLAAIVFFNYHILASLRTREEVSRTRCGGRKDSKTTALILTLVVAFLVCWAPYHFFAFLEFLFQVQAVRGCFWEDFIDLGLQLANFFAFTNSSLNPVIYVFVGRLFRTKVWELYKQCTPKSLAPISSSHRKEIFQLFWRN", "test": "Eurofins panel 212510", "format": "binding"}, "Tachykinin NK1": {"target": "Tachykinin NK1 (Homo sapiens, UniProt P25103)", "test": "Eurofins panel 255520", "format": "binding"}, "Adenosine A1": {"target": "Adenosine A1 (Homo sapiens, UniProt P30542)", "test": "Eurofins panel 200510", "format": "binding"}, "Purinergic P2X": {"system": "Purinergic P2X", "test": "Eurofins panel 268700", "format": "binding, rabbit", "details": "10 µM"}, "Phorbol Ester": {"system": "Phorbol Ester", "test": "Eurofins panel 264500", "format": "binding, mouse", "details": "10 µM"}, "Dopamine D3": {"target": "Dopamine D3 (Homo sapiens, UniProt P35462)", "test": "Eurofins panel 219800", "format": "binding"}, "Neuropeptide Y Y2": {"target": "Neuropeptide Y Y2 (Homo sapiens, UniProt P49146)", "test": "Eurofins panel 257110", "format": "binding"}, "[2]": {"target": "Leukotriene, Cysteinyl CysLT1 (Homo sapiens, UniProt Q9Y271)", "sequence (Q9Y271 whole entry)": "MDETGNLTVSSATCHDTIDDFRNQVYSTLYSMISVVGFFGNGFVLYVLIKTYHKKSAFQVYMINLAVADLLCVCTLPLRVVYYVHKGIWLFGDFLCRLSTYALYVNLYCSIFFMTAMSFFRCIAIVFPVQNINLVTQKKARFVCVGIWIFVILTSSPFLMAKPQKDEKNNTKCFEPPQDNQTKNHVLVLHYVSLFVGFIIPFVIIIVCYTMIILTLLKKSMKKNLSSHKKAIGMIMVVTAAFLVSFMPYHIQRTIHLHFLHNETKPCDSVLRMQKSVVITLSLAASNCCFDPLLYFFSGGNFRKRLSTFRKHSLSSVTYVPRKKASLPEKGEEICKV", "test": "Eurofins panel 250460", "format": "binding"}, "[3]": {"test": "LeadProfilingScreen, Eurofins CEREP Panlabs, 68 assays", "format": "binding", "details": "test concentration 10 µM"}, "fibroblasts": {"system": "fibroblasts", "test": "RNASeq transcriptome analysis, fibroblasts", "format": "cell-based, human", "details": "24 hrs of treatment"}, "Adrenergic α1D": {"target": "Adrenergic α1D (Homo sapiens, UniProt P25100)", "test": "Eurofins panel 203400", "format": "binding"}, "Adenosine A3": {"target": "Adenosine A3 (Homo sapiens, UniProt P0DMS8)", "sequence (P0DMS8 whole entry)": "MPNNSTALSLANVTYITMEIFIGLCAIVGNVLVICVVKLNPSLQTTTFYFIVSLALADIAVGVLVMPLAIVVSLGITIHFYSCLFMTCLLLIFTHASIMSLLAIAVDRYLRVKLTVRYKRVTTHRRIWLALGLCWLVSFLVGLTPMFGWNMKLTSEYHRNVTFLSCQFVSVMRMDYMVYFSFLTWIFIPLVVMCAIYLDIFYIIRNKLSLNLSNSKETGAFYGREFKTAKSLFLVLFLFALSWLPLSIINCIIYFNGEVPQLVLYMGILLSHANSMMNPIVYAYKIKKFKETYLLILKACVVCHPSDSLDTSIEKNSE", "test": "Eurofins panel 200720", "format": "binding"}, "GABAA, Muscimol, Central": {"system": "GABAA, Muscimol, Central", "test": "Eurofins panel 226500", "format": "binding, rat", "details": "10 µM"}, "Bradykinin B2": {"target": "Bradykinin B2 (Homo sapiens, UniProt P30411)", "test": "Eurofins panel 212620", "format": "binding"}, "[4]": {"system": "primary human dermal fibroblasts", "test": "qPCR COL1A1 and LOX gene expression", "format": "cell-based", "parameters": "key to qPCR COLIAI / qPCRLOX: relative expression by 2^−ΔΔCt, GAPDH/PGK1 housekeeping", "protocol": "Changes in COL1A1 and LOX gene expression in PXS-4787 treated cells were done using primary human dermal fibroblasts (50,000) seeded in a 6-well plate under Scar-in-a-jar media. The cells were incubated with 0 µM, 1 µM, and 10 µM PXS-4787 treatment for 48 h. mRNA was extracted using RNeasy mini kit® according to the manufacturer’s protocol (Qiagen Gmbh). The total concentration and purity of RNA were determined using a NAnodrop 2000C (Thermo Scientific, USA). For reverse transcription, mRNA was converted to cDNA using QuantiTect Reverse Transcription kit (Qiagen; Catalog no. 205311) according to the manufacturer’s protocol. Quantitative real-time RT-PCR was conducted using SYBR Green Master Mix (Qiagen; Catalog no. 204143) and Rotor gene Q thermocycler (Qiagen). The reactions were carried out in triplicate in 20 µl total volume containing 1 µl cDNA and 2 µl primers. The QuantiTect Primer assay for COL1A1 (Catalog no. QT00037793), LOX (Catalog no. QT00017311) were used. GAPDH (Catalog no. QT00079247) and PGK1 (Catalog no. 249900) were used as a housekeeping gene. The data were analyzed using Rotor geneQ software and the relative gene expression was calculated using the 2−^(∆∆c (t)) method. Three biological samples were used for each condition."}, "[5]": {"test": "Franz Cell skin permeability assay", "format": "in vitro ADME, human", "details": "3% cream on epidermis of human skin ex vivo"}, "[6]": {"target": "Cholinesterase, Acetyl, ACES (Homo sapiens, UniProt P22303)", "test": "Eurofins panel 104010", "format": "biochemical"}, "[7]": {"target": "Nicotinic Acetylcholine α1β2, Cytisine (Homo sapiens, UniProt P17787+P43681)", "sequence (P43681 27-627)": "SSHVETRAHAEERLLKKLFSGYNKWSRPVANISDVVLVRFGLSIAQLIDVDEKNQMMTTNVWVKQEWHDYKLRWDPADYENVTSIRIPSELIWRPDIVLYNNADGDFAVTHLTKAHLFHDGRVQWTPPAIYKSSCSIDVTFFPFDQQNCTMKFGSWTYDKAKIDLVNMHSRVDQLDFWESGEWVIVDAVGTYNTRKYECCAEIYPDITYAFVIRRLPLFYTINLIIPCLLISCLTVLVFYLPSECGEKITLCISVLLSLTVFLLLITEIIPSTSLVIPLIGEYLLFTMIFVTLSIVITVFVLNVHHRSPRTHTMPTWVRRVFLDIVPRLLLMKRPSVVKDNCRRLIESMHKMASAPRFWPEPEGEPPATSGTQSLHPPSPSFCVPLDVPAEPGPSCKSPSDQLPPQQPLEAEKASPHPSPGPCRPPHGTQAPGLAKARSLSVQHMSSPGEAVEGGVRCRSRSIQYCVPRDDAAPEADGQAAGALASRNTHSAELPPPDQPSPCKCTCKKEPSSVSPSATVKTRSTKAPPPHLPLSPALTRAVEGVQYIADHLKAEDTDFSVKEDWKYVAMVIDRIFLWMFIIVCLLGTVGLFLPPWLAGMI", "sequence (P17787 26-502)": "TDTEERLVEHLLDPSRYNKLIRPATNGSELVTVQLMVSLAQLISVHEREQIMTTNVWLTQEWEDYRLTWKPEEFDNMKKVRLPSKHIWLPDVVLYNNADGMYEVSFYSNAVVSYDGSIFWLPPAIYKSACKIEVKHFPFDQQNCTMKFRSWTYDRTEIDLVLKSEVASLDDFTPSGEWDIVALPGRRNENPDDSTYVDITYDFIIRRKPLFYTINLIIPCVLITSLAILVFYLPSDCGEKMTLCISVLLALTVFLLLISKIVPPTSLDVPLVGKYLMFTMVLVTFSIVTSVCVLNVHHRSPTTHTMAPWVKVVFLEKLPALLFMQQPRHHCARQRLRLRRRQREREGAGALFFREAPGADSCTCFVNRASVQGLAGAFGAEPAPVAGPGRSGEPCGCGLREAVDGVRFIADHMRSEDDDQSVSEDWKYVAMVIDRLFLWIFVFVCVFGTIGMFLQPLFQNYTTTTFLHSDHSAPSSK", "test": "Eurofins panel 299031", "format": "binding"}, "hERG potassium channel": {"target": "hERG potassium channel (Homo sapiens, UniProt Q12809)", "test": "Eurofins panel 265910", "format": "binding", "details": "probe [3H]Dofetilide"}, "Cyclooxygenase COX-2": {"target": "Cyclooxygenase COX-2 (Homo sapiens, UniProt P35354)", "sequence (P35354 18-604)": "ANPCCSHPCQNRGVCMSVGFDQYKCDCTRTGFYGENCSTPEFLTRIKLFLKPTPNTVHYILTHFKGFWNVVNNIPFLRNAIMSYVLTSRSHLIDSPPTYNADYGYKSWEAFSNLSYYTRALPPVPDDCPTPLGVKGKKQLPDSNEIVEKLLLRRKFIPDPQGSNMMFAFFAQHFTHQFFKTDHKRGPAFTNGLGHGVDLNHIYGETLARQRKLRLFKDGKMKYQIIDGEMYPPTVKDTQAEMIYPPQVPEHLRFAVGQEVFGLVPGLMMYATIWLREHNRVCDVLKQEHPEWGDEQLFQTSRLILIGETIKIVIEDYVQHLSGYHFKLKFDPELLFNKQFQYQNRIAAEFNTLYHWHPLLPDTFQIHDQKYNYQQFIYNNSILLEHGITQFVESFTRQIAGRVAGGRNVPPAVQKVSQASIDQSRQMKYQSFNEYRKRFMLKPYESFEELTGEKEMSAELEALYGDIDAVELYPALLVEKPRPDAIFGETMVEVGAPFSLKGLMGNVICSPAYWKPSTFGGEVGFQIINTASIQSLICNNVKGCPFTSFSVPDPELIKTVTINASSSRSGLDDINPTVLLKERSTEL", "test": "Eurofins panel 118010", "format": "biochemical"}, "Potassium Channel [KA]": {"system": "Potassium Channel [KA]", "test": "Eurofins panel 265510", "format": "binding, rat", "details": "30 µM"}, "LogD": {"test": "LogD", "format": "physicochemical"}, "Phosphodiesterase PDE3A": {"target": "Phosphodiesterase PDE3A (Homo sapiens, UniProt Q14432)", "test": "Eurofins panel 152300", "format": "biochemical"}, "PAMPA permeability": {"test": "PAMPA permeability", "format": "in vitro ADME"}, "Cannabinoid CB2": {"target": "Cannabinoid CB2 (Homo sapiens, UniProt P34972)", "test": "Eurofins panel 217100", "format": "binding"}, "Monoamine Oxidase MAO-A": {"target": "Monoamine Oxidase MAO-A (Homo sapiens, UniProt P21397)", "test": "Eurofins panel 140010", "format": "biochemical"}}, "note": "“And” between values parts separate entries of the source, which are not always exact repeats. Equal values may be shown once.", "data": [{"smiles": "NC/C=C(\\F)CS(=O)(=O)c1ccccc1", "note": "[PXS-4787]", "values": [{"measurement": "% Inh.", "setting": "Nicotinic Acetylcholine", "result": 1, "unit": "%"}, {"measurement": "stability in cream formulations", "setting": "[1]", "result": "some unwanted degradation occurred"}, {"measurement": "inhibition at 10 µM", "setting": "Calcium Channel N-Type", "result": 0, "unit": "%"}, {"measurement": "inhibition at 10 µM", "setting": "GABAB1A", "result": 6, "unit": "%"}, {"measurement": "inhibition at 10 µM", "setting": "Bradykinin B1", "result": 6, "unit": "%"}, {"measurement": "inhibition at 10 µM", "setting": "Tachykinin NK1", "result": 10, "unit": "%"}, {"measurement": "inhibition at 10 µM", "setting": "Adenosine A1", "result": 1, "unit": "%"}, {"measurement": "% Inh.", "setting": "Purinergic P2X", "result": 8, "unit": "%"}, {"measurement": "% Inh.", "setting": "Phorbol Ester", "result": 5, "unit": "%"}, {"measurement": "inhibition at 10 µM", "setting": "Dopamine D3", "result": 0, "unit": "%"}, {"measurement": "inhibition at 10 µM", "setting": "Neuropeptide Y Y2", "result": 0, "unit": "%"}, {"measurement": "inhibition at 10 µM", "setting": "[2]", "result": -3, "unit": "%"}, {"measurement": "profile in broad panel of macromolecular targets", "setting": "[3]", "result": "clean"}, {"measurement": "Log2 fold change ACTA2-AS1", "setting": "fibroblasts", "result": -3.268}, {"measurement": "Log2 fold change GAL", "setting": "fibroblasts", "result": 2.787}, {"measurement": "Log2 fold change ICOSLG", "setting": "fibroblasts", "result": 1.738}, {"measurement": "Log2 fold change TMEM88", "setting": "fibroblasts", "result": 2.374}, {"measurement": "inhibition at 10 µM", "setting": "Adrenergic α1D", "result": -1, "unit": "%"}, {"measurement": "inhibition at 10 µM", "setting": "Adenosine A3", "result": 4, "unit": "%"}, {"measurement": "% Inh.", "setting": "GABAA, Muscimol, Central", "result": 13, "unit": "%"}, {"measurement": "inhibition at 10 µM", "setting": "Bradykinin B2", "result": 5, "unit": "%"}, {"measurement": "COL1A1 or LOX RNA levels", "setting": "[4]; 0, 1, 10 µM, 48 h", "result": "No change"}, {"measurement": "qPCR COLIAI", "setting": "[4]; 1μM", "result": "0.9946 and 1.0482 and 1.0167"}, {"measurement": "qPCRLOX", "setting": "[4]; 1μM", "result": "1.068 and 1.006 and 0.9855"}, {"measurement": "qPCR COLIAI", "setting": "[4]; 10 µM", "result": "0.9655 and 0.9268 and 1.013"}, {"measurement": "qPCRLOX", "setting": "[4]; 10 µM", "result": "0.9777 and 0.8786 and 0.9515"}]}, {"smiles": "NC/C=C(\\F)C(F)(F)S(=O)(=O)c1ccccc1", "note": "[PXS-6302]", "values": [{"measurement": "further increase of concentration in reservoir chamber over the next 14 h", "setting": "[5]", "result": 10, "unit": "fold"}, {"measurement": "increase of concentration in reservoir chamber between 2 and 6 h", "setting": "[5]", "result": 10, "unit": "fold"}, {"measurement": "inhibition at 30 µM", "setting": "[6]", "result": 2, "unit": "%"}, {"measurement": "inhibition at 30 µM", "setting": "[7]", "result": -2, "unit": "%"}, {"measurement": "inhibition at 30 µM", "setting": "hERG potassium channel", "result": 29, "unit": "%"}, {"measurement": "inhibition at 30 µM", "setting": "Cyclooxygenase COX-2", "result": 21, "unit": "%"}, {"measurement": "% Inh.", "setting": "Potassium Channel [KA]", "result": 2, "unit": "%"}, {"measurement": "logD", "setting": "LogD", "result": 1}, {"measurement": "inhibition at 30 µM", "setting": "Phosphodiesterase PDE3A", "result": -4, "unit": "%"}, {"measurement": "PAMPA permeability (class in words)", "setting": "PAMPA permeability", "result": "High and high permeability"}, {"measurement": "Papp", "setting": "PAMPA permeability; GIT PAMPA at pH 7.4, read-out: PAMPA permeability, Average of P", "result": 168, "unit": "×10⁻⁶ cm/s"}, {"measurement": "inhibition at 30 µM", "setting": "Cannabinoid CB2", "result": -4, "unit": "%"}, {"measurement": "inhibition at 30 µM", "setting": "Monoamine Oxidase MAO-A", "result": 10, "unit": "%"}]}]}
